This note sets out measurements from patent US5086056A, “2-(heterocyclylalkyl)imidazopyridines” (Janssen Pharmaceutica N.V., priority 1987, dated 1992).

Structures are written as SMILES.

The experiment has as its system compound 48/80-induced lethality. Description: Protection of rats from compound 48/80-induced lethality. Type of experiment: in vivo, rat (male, inbred Wistar strain). The conditions noted are these: Rattus norvegicus; dose protecting 50% of animals; s.c. or oral, 1 hour before compound 48/80 0.5 mg/kg i.v.; survival after 4 hours; read-out: compound 48/80 lethality test in rats-ED50. The text has this: Protection of rats from compound 48/80-induced lethality
Compound 48/80, a mixture of oligomers obtained by condensation of 4-methoxy-N-methylbenzeneethanamine and formaldehyde has been described as a potent histamine releasing agent (Int. Arch. Allergy, 13, 336 (1958)). The protection from compound 48/80-induced lethal circulatory collapse appears to be a simple way of evaluating quantitatively the antihistaminic activity of test compounds. Male rats of an inbred Wistar strain, weighing 240-260 g were used in the experiment. After overnight starvation the rats were transferred to conditioned laboratories (temp.=21°±1° C., relative humidity=65±5%). The rats were treated subcutaneously or orally with a test compound or with the solvent (NaCl solution, 0.9%). One hour after treatment there was injected intraveneously compound 48/80, freshly dissolved in water, at a dose of 0.5 mg/kg (0.2 ml/100 g of body weight). In control experiments, wherein 250 solvent-treated animals were injected with the standard dose of compound 48/80, not more than 2.8% of the animals survived after 4 hours. Survival after 4 hours is therefore considered to be a safe criterion of a protective effect of drug administration. Said ED50 -values are the values in mg/kg body weight at which the tested compounds protect 50% of the tested animals against compound 48/80-induced lethality.
Regarding `CCOCCn1c(CN2CCN(CCC(=O)NC(C)C)CC2)nc2cccnc21` [Compound 93, 4-[[3-(2-ethoxyethyl)-3H-imidazo[4,5-b]pyridin-2-yl]methyl]-N-(1-methylethyl)-1-piperazinepropanamide], the ED50 was found to be 0.01 mg/kg.
The result for `Cc1ccc(Cn2c(CN3CCN(C)CC3)nc3cccnc32)o1` [Compound 14, 3-[(5-methyl-2-furanyl)methyl]-2-[ (4-methyl-1-piperazinyl)methyl]-3H-imidazo[4,5-b]pyridine] reads 0.01 mg/kg.
In the case of `CCOCCn1c(CN2CCN(CCCC(C)=O)CC2)nc2cccnc21` [Compound 44], the ED50 amounted to 0.005 mg/kg.
The result for `CCOCCN1CCN(Cc2nc3cccnc3n2CCOCC)CC1` [Compound 42] reads 0.02 mg/kg; that for `CCOCCn1c(CN2CCN(CCCn3c(=O)[nH]c4ccccc43)CC2)nc2cccnc21` [Compound 77, 1-[3-[4-[[3-(2-ethoxyethyl)-3H-imidazo[4,5-b]pyridin-2-yl]methyl]-1piperazinyl]propyl]-1,3-dihydro-2H-benzimidazol-2-one], 0.02 mg/kg.
As to `CCOCCn1c(CN2CCN(CCc3ccc(OC)cc3)CC2)nc2cccnc21` [Compound 47], the ED50 is 0.02 mg/kg.
As for `C#CCOCCn1c(CN2CCN(C)CC2)nc2cccnc21` [Compound 125, 2-[(4-methyl-1-piperazinyl)methyl]-3-[2-(2-propynyloxy)ethyl]-3H-imidazo[4,5-b]pyridine], the ED50 is 0.02 mg/kg.
The result for `C=CCOCCn1c(CN2CCN(C)CC2)nc2cccnc21` [Compound 126, 2-[(4-methyl-1-piperazinyl)methyl]-3-[2-(2-propenyloxy)ethyl]-3H-imidazo[4,5-b]pyridine] reads 0.02 mg/kg; that for `CCOCCn1c(CN2CCN(CCc3scnc3C)CC2)nc2cccnc21` [Compound 74, 3-(2-ethoxyethyl)-2-[[4-[2-(4-methyl-5-thiazolyl)ethyl]-1-piperazinyl]methyl]-3H-imidazo[4,5-b]pyridine], 0.01 mg/kg.
The result for `CCOCCn1c(CN2CCN(C)CC2)nc2cccnc21` [Compound 17, 3-(2-ethoxyethyl)-2-[(4-methyl-1-piperazinyl)methyl]-3H-imidazo[4,5-b]pyridine] reads 0.04 mg/kg; that for `CCOCCn1c(CN2CCN(CCc3ccccn3)CC2)nc2cccnc21` [Compound 120, 3-(2-ethoxyethyl)-2-[[4-[2-(2-pyridinyl)ethyl]-1-piperazinyl]methyl]-3H-imidazo[4,5-b]pyridine], 0.005 mg/kg.
For `CCOCCn1c(CN2CCN(CCCOc3ccc(F)cc3)CC2)nc2cccnc21` [Compound 79, 3-(2-ethoxyethyl)-2-[[4-[3-(4-fluorophenoxy)propyl]-1-piperazinyl]methyl]-3H-imidazo[4,5-b]pyridine], the ED50 was 0.02 mg/kg.
With `CCOCCn1c(CN2CCN(CCNC(=O)c3ccoc3)CC2)nc2cccnc21` [Compound 110, N-[2-[4-[[3-(2-ethoxyethyl)-3H-imidazo[4,5-b]pyridin-2-yl]methyl]-1-piperazinyl]ethyl]-3-furancarboxamide], the ED50 stood at 0.01 mg/kg.
The result for `CCOCCn1c(CN2CCN(CCNc3ncccn3)CC2)nc2cccnc21` [Compound 105, N-[2-[-4-[[3-(2-ethoxyethyl)-3H-imidazo[4,5-b]pyridin-2-yl]methyl]-1-piperazinyl]ethyl]-2-pyrimidinamine] reads 0.01 mg/kg; that for `CCOCCn1c(CN2CCN(CCc3c(C)nc4ccccn4c3=O)CC2)nc2cccnc21` [Compound 76, 3-[2-[4-[[3-(2-ethoxyethyl)-3H-imidazo[4,5-b]pyridin-2-yl]methyl]-1-piperazinyl]ethyl]-2-methyl-4H-pyrido[1,2-a]pyrimidin-4-one], 0.02 mg/kg; that for `CCOCCn1c(CN2CCN(CCNC(=O)c3cccn3C)CC2)nc2cccnc21` [Compound 111, N-[2-[4-[[3-(2-ethoxyethyl)-3H-imidazo[4,5-b]pyridin-2-yl]methyl]-1-piperazinyl]ethyl]-1-methyl-1H-pyrrole-2-carboxamide], 0.02 mg/kg.
